Laboratory results: PMC8379256, “A xanthene derivative, DS20060511, attenuates glucose intolerance by inducing skeletal muscle-specific GLUT4 translocation in mice” (Communications Biology, 2021)
Values joined by “and” are separate entries in the source; they are usually repeats but may differ in a detail not shown here. Identical values can stand only once.

Tests used:
GLUT4 = GLUT4 protein in plasma membrane fraction of triceps surae muscle (immunoblot); format: in vivo, mouse; settings: DS20060511 10 mg kg−1 or insulin 5 U kg−1 via inferior vena cava, 10 min; Fig. 2e
Method: The plasma membrane fraction of each skeletal muscle specimen was prepared as described previously[48],[49]. Briefly, the triceps surae muscle was homogenized in Buffer A (20 mM HEPES, 1 mM EDTA, 1 mM PMSF, and protease inhibitor) containing 250 mM sucrose on ice. The muscle homogenate was centrifuged at 2000 × g for 10 min at 4 °C to remove any unhomogenized muscle fibers. The supernatant was then centrifuged at 19,000 × g for 20 min at 4 °C. The pellet was resuspended in 3 mL Buffer A, layered on a 6 mL sucrose cushion (38% sucrose in Buffer A) and centrifuged at 100,000 × g for 60 min at 4 °C. The membrane fraction recovered on top of the sucrose cushion was resuspended in Buffer A and centrifuged at 40,000 × g for 20 min at 4 °C. The pellet was designated as the plasma membrane fraction and subjected to immunoblotting.
Phosphorylated or total protein of IRβ and IRS1 was resolved on 7% SDS-PAGE and analyzed using specific antibodies against IRβ, IRS1, and phosphotyrosine. […] Bound antibodies were detected with HRP-conjugated secondary antibodies using ECL detection reagents (GE Healthcare, Chicago, IL).

L6-GLUT4myc myotubes [1] = assay: GLUT4 translocation: cell surface GLUT4myc by anti-Myc antibody assay in L6-GLUT4myc myotubes; format: cell-based, rat; design: key to GLUT4 translocation: fold of vehicle-treated group; settings: for Ratio: GLUT4 translocation normalized to vehicle; for A - background / A: Abs. (450 nm): GLUT4 translocation
Method: (§1) The L6-GLUT4myc rat myoblast cell line was obtained from Dr. Amira Klip and Dr. Philip Bilan, through a license granted by The Hospital for Sick Children, 555 University Avenue, Toronto, Ontario, Canada M5G 1 × 8; or purchased from Kerafast, Boston, MA (ESK202)[43]. The 3T3-L1-GLUT4myc fibroblast cell line was provided by Dr. Tomoyuki Yuasa, Tokushima University[44]. L6-GLUT4myc myoblasts were grown in MEMα (32571036, Thermo Fisher Scientific, Waltham, MA) supplemented with 10% FBS and 1% antibiotics, and then induced to differentiate into myotubes in MEMα supplemented with 2% FBS and 1% antibiotics for 5–8 days. 3T3-L1-GLUT4myc fibroblasts were induced to differentiate into adipocytes as described previously,[45] with minor modifications. Briefly, cells were grown to confluence in growth medium: DMEM (10569010, Thermo Fisher Scientific) supplemented with 10% FBS and 1% antibiotics, and then induced to differentiate into adipocytes in growth medium supplemented with 1 μM dexamethasone, 2 μM rosiglitazone, 0.5 mM isobutylmethylxanthine, and 10 μg mL^−1 insulin for 2 days. The adipocytes were then cultured in growth medium supplemented with 10 μg mL^−1 insulin for a few days before being used for the experiments.
(§2) Cell surface GLUT4 levels in the L6-GLUT4myc myoblasts and myotubes were determined by antibody binding assay as described previously[43],[44], with minor modifications. Briefly, cells in a 96- or 24-well plate were starved in serum-free MEMα (0.1% BSA and 1% antibiotics) for 3 h and then treated with the indicated concentrations of DS20060511 and/or insulin for 30 min at 37 °C. After fixation with 4% paraformaldehyde, the cells were incubated with 1% glycine in PBS at 4 °C for 10 min, and blocked with 10% normal goat serum and 3% BSA in PBS at 4 °C for 30 min. The cells were then incubated with anti-c-Myc antibody (sc-40, 1:500) diluted with blocking buffer at 4 °C for 1 h, washed with cold PBS(+), incubated with HRP-conjugated anti-mouse IgG diluted with blocking buffer at 4 °C for 30 min, and then washed again. SuperSignal ELISA Pico Chemiluminescent Substrate (Thermo Fisher Scientific) was added and the luminescent signal was measured. To investigate GLUT4 translocation in the 3T3-L1-GLUT4myc adipocytes, the cells were prepared in a 24-well plate, and anti-c-Myc antibody (sc-789, 1:1000), HRP-conjugated anti-rabbit IgG and SIGMAFAST OPD regent (Sigma–Aldrich) were added for optical detection of the cell surface GLUT4myc levels. The GLUT4 translocation activity was normalized to that in the vehicle-treated group.

[2] = test system: 3T3-L1-GLUT4myc adipocytes; assay: GLUT4 translocation: cell surface GLUT4myc by anti-Myc antibody assay in 3T3-L1-GLUT4myc adipocytes; format: cell-based; settings: for Ratio: GLUT4 translocation normalized to vehicle; for A - background / A: Abs. (450 nm): GLUT4 translocation; for GLUT4 translocation (in words): differentiated 3T3-L1-GLUT4myc adipocytes, Fig. 1c
Method: as §1, §2

L6-GLUT4myc myotubes [3] = assay: GLUT4 translocation: cell surface GLUT4myc by anti-Myc antibody assay in L6-GLUT4myc myotubes; format: cell-based, rat

Molecule: COc1ccc2c(C)c(C(=O)O)ccc2c1C1C2=C(CC(C)(C)CC2=O)OC2=C1C(=O)CC(C)(C)C2 [DS20060511]
- GLUT4 protein expression levels in the plasma membrane fraction of skeletal muscles (GLUT4): increased GLUT4 protein expression levels in the plasma membrane fraction
- GLUT4 translocation on co-treatment with insulin (L6-GLUT4myc myotubes [1]; 30 μM DS20060511 plus insulin, also at saturating insulin concentration, Fig. 4e): additive increase of GLUT4 translocation
- GLUT4 translocation (L6-GLUT4myc myotubes [1]; DS20060511 30 μM, Latrunculin B 0 nM, normalized to vehicle): 1.94 and 1.98 and 1.81
- GLUT4 translocation (L6-GLUT4myc myotubes [1]; DS20060511 30 μM, Latrunculin B 10 nM): 2.29 and 2.23 and 2.10
- GLUT4 translocation (L6-GLUT4myc myotubes [1]; DS20060511 30 μM, Latrunculin B 30 nM): 1.81 and 2.08 and 1.91
- GLUT4 translocation (L6-GLUT4myc myotubes [1]; DS20060511 30 μM, Latrunculin B 100 nM): 2.37 and 2.30 and 2.39
- GLUT4 translocation (L6-GLUT4myc myotubes [1]; DS20060511 30 μM, Latrunculin B 200 nM): 2.39 and 2.15 and 2.06
- Ratio (L6-GLUT4myc myotubes [1]; DS20060511 0.1 μM): 1.26 and 1.33
- Ratio (L6-GLUT4myc myotubes [1]; DS20060511 1 μM): 1.71 and 1.72 and 1.90
- Ratio (L6-GLUT4myc myotubes [1]; DS20060511 10 μM): 2.15 and 2.14 and 2.27
- A - background (L6-GLUT4myc myotubes [1]; DS20060511 0.1 μM): 0.100 and 0.106
- A - background (L6-GLUT4myc myotubes [1]; DS20060511 1 μM): 0.137 and 0.151 and 0.136
- A: Abs. (450 nm) (L6-GLUT4myc myotubes [1]; DS20060511 1 μM): 0.227 and 0.241 and 0.226
- A - background (L6-GLUT4myc myotubes [1]; DS20060511 10 μM): 0.170 and 0.180 and 0.171
- A: Abs. (450 nm) (L6-GLUT4myc myotubes [1]; DS20060511 10 μM): 0.260 and 0.270 and 0.261
- GLUT4 translocation (in words) (L6-GLUT4myc myotubes [1]; differentiated L6-GLUT4myc myotubes, Fig. 1b): increased GLUT4 translocation in differentiated L6-GLUT4myc myotubes in a concentration-dependent manner
- Ratio ([2]; DS20060511 0.1 μM): 0.99 and 1.02 and 1.06
- Ratio ([2]; DS20060511 1 μM): 0.93 and 1.02 and 0.98
- Ratio ([2]; DS20060511 10 μM): 0.96 and 1.08 and 1.04
- A - background ([2]; DS20060511 0.1 μM): 0.1225 and 0.1275 and 0.1195
- A: Abs. (450 nm) ([2]; DS20060511 0.1 μM): 0.206 and 0.211 and 0.203
- A - background ([2]; DS20060511 1 μM): 0.1225 and 0.1175 and 0.1115
- A: Abs. (450 nm) ([2]; DS20060511 1 μM): 0.206 and 0.201 and 0.195
- A - background ([2]; DS20060511 10 μM): 0.1305 and 0.1255 and 0.1155
- A: Abs. (450 nm) ([2]; DS20060511 10 μM): 0.214 and 0.209 and 0.199
- GLUT4 translocation (in words) [2]: almost no effect on GLUT4 translocation
- A: Abs. (450 nm) (L6-GLUT4myc myotubes [3]; DS20060511 0.1 μM, replicates 1-3): 0.190 (2×) and 0.196

Molecule: Insulin: Insulin (Humulin, Eli Lilly) in the in vivo experiments; Insulin solution human (I9278, Sigma–Aldrich) in the in vitro experiments
- Ratio (L6-GLUT4myc myotubes [1]; Insulin 1 nM): 1.41 and 1.40 and 1.33
- Ratio (L6-GLUT4myc myotubes [1]; Insulin 10 nM): 1.91 and 1.96 and 1.84
- Ratio (L6-GLUT4myc myotubes [1]; Insulin 100 nM): 2.47 and 2.48 and 2.46
- A - background (L6-GLUT4myc myotubes [1]; Insulin 1 nM): 0.111 and 0.106 and 0.112
- A: Abs. (450 nm) (L6-GLUT4myc myotubes [1]; Insulin 1 nM): 0.201 and 0.196 and 0.202
- A - background (L6-GLUT4myc myotubes [1]; Insulin 10 nM): 0.156 and 0.146 and 0.152
- A: Abs. (450 nm) (L6-GLUT4myc myotubes [1]; Insulin 10 nM): 0.246 and 0.236 and 0.242
- A - background (L6-GLUT4myc myotubes [1]; Insulin 100 nM): 0.196 and 0.194 and 0.195
- GLUT4 translocation (L6-GLUT4myc myotubes [1]; Insulin 100 nM, Latrunculin B 0 nM, normalized to vehicle): 3.11 and 3.04 and 3.07
- GLUT4 translocation (L6-GLUT4myc myotubes [1]; Insulin 100 nM, Latrunculin B 10 nM): 3.38 and 3.09 and 3.08
- GLUT4 translocation (L6-GLUT4myc myotubes [1]; Insulin 100 nM, Latrunculin B 30 nM): 2.53 and 2.30 and 2.42
- GLUT4 translocation (L6-GLUT4myc myotubes [1]; Insulin 100 nM, Latrunculin B 100 nM): 2.62 and 2.09 and 2.39
- GLUT4 translocation (L6-GLUT4myc myotubes [1]; Insulin 100 nM, Latrunculin B 200 nM): 2.01 and 1.93
- Ratio ([2]; Insulin 1 nM): 1.07 and 1.09 and 1.12
- Ratio ([2]; Insulin 10 nM): 1.31 and 1.33 and 1.41
- Ratio ([2]; Insulin 100 nM): 1.41 and 1.46 and 1.56
- A - background ([2]; Insulin 1 nM): 0.1315 and 0.1345 and 0.1295
- A: Abs. (450 nm) ([2]; Insulin 1 nM): 0.215 and 0.218 and 0.213
- A - background ([2]; Insulin 10 nM): 0.1605 and 0.1705 and 0.1575
- A: Abs. (450 nm) ([2]; Insulin 10 nM): 0.244 and 0.254 and 0.241
- A - background ([2]; Insulin 100 nM): 0.1755 and 0.1885 and 0.1705
- A: Abs. (450 nm) ([2]; Insulin 100 nM): 0.259 and 0.272 and 0.254
- GLUT4 translocation (in words) [2]: increased GLUT4 translocation
- A: Abs. (450 nm) (L6-GLUT4myc myotubes [3]; Insulin 100 nM): 0.287 and 0.285 and 0.286
